System: control neuropathic mice
Test: Pain behaviors in control neuropathic mice not expressing hM4-mCherry in the BLA
Type: in vivo
Conditions: absence of hM4 expression, CNO 10 mg/kg, morphine as positive control
Description: To induce a chronic pain state, we used a modified version of the Spared Nerve Injury (SNI) model of neuropathic pain, as previously described (70). This model entails surgical section of two of the sciatic nerve branches (common peroneal and tibial branches) while sparing the third (sural branch). […] To perform this peripheral nerve injury procedure, anesthesia was induced and maintained throughout surgery with isoflurane (4% induction, 1.5% maintenance in oxygen). The left hind leg was shaved and wiped clean with alcohol and betadine. We made a 1-cm incision in the skin of the mid-dorsal thigh, approximately where the sciatic nerve trifurcates. The biceps femoris and semimembranosus muscles were gently separated from one another with blunt scissors, thereby creating a <1-cm opening between the muscle groups to expose the common peroneal, tibial, and sural branches of the sciatic nerve. Next, −2 mm of both the common peroneal and tibial nerves were transected and removed, without suturing and with care not to distend the sural nerve. The leg muscles are left uncultured and the skin was closed with tissue adhesive (3M Vetbond), followed by a Betadine application. During recovery from surgery, mice were placed under a heat lamp until awake and achieved normal balanced movement. Mice were then returned to their home cage and closely monitored over the following three days for well-being.
To evaluate mechanical reflexive sensitivity, we used a logarithmically increasing set of 8 von Frey filaments (Stoelting), ranging in gram force from 0.07- to 6.0-g (93). These filaments were applied perpendicular to the plantar hindpaw with sufficient force to cause a slight bending of the filament. […] Using the Up-Down statistical method, the 50% withdrawal mechanical threshold scores were calculated for each mouse and then averaged across the experimental groups. The response frequency was calculated as the number of positive responses out of 10 stimulations, delivered at 30-s intervals.
To evaluate affective-motivational responses evoked by thermal stimulation (81), we applied either a single, unilateral 50-μL drop of water (5, 30, or 55° C.) or acetone (evaporative cooling) to the left hindpaw, and the duration of attending behavior was collected for up to 60 s after the stimulation. […] The track was subdivided into 25 temperature zones (4.8-cm D per zone), and we assessed the temperature at the center of each zone by a K-probe thermocouple. […] A video camera placed above the track recorded the position of the mouse within the temperature zones, and videos were later analyzed using a video-tracking software (Etho-vision, Noldus) for duration of zone occupancy, zone visits, distance, velocity, and acceleration.

CN1CC[C@]23c4c5ccc(O)c4O[C@H]2[C@@H](O)C=C[C@H]3[C@H]1C5 [Morphine]
affective-motivational behaviors (acetone drop): reduced
reflex behaviors (von Frey filaments): reduced

— patent US20210220489A1, “AMYGDALAR NEURAL ENSEMBLE THAT ENCODES THE UNPL[…] PAIN” (The Board of Trustees of the Leland Stanford Junior …, priority 2020, published 2021)
